Experimental data published in the NIST ThermoML archive (doi:10.1016/j.fluid.2005.06.010).
± gives the expanded uncertainty stated by the source.

Assay: xn = mol fraction of the nth substance listed
Conditions: Fluid (supercritical or subcritical phases), Vibrating tube method

c1ccc2ccccc2c1 [naphthalene] + O=C=O
Conditions	mass density [kg/m3]
318.03 K, 16010 kPa, x1 = 0.0198	802.31 ± 0.63
318.03 K, 16995 kPa, x1 = 0.0198	813.73 ± 0.6
318.03 K, 17979 kPa, x1 = 0.0198	824.06 ± 0.58
318.03 K, 18989 kPa, x1 = 0.0198	833.74 ± 0.57
318.03 K, 20016 kPa, x1 = 0.0198	842.78 ± 0.56
318.03 K, 20955 kPa, x1 = 0.0198	850.43 ± 0.54
318.03 K, 21951 kPa, x1 = 0.0198	858.04 ± 0.53
318.03 K, 22703 kPa, x1 = 0.0198	863.41 ± 0.54
318.07 K, 18008 kPa, x1 = 0.0235	829.61 ± 0.58
318.07 K, 18511 kPa, x1 = 0.0235	834.41 ± 0.57
318.07 K, 19022 kPa, x1 = 0.0235	839.2 ± 0.56
318.07 K, 19528 kPa, x1 = 0.0235	843.76 ± 0.56
318.07 K, 20035 kPa, x1 = 0.0235	848.15 ± 0.55
318.07 K, 20519 kPa, x1 = 0.0235	852.18 ± 0.55
318.07 K, 21009 kPa, x1 = 0.0235	856.16 ± 0.55
318.07 K, 22034 kPa, x1 = 0.0235	864 ± 0.54
318.07 K, 23008 kPa, x1 = 0.0235	870.96 ± 0.53
318.07 K, 23971 kPa, x1 = 0.0235	877.49 ± 0.52
318.07 K, 24665 kPa, x1 = 0.0235	882.02 ± 0.52
318.08 K, 12165 kPa, x1 = 0.0144	719.15 ± 1
318.08 K, 12357 kPa, x1 = 0.0144	724.21 ± 0.92
318.08 K, 12493 kPa, x1 = 0.0144	727.5 ± 0.86
318.08 K, 13016 kPa, x1 = 0.0144	739.71 ± 0.79
318.08 K, 13476 kPa, x1 = 0.0144	749.33 ± 0.76
318.08 K, 14019 kPa, x1 = 0.0144	759.61 ± 0.71
318.08 K, 14983 kPa, x1 = 0.0144	775.77 ± 0.67
318.08 K, 14983 kPa, x1 = 0.0173	784.34 ± 0.66
318.08 K, 15997 kPa, x1 = 0.0144	790.28 ± 0.63
318.08 K, 16066 kPa, x1 = 0.0173	799.24 ± 0.63
318.08 K, 16997 kPa, x1 = 0.0144	803.04 ± 0.61
318.08 K, 16997 kPa, x1 = 0.0173	810.5 ± 0.61
318.08 K, 17981 kPa, x1 = 0.0144	814.33 ± 0.59
318.08 K, 18010 kPa, x1 = 0.0173	821.53 ± 0.59
318.08 K, 18981 kPa, x1 = 0.0144	824.7 ± 0.57
318.08 K, 19014 kPa, x1 = 0.0173	831.51 ± 0.57
318.08 K, 20037 kPa, x1 = 0.0173	840.84 ± 0.56
318.08 K, 20042 kPa, x1 = 0.0144	834.82 ± 0.56
318.08 K, 20902 kPa, x1 = 0.0144	842.42 ± 0.55
318.08 K, 20967 kPa, x1 = 0.0173	848.79 ± 0.55
318.08 K, 21935 kPa, x1 = 0.0144	850.92 ± 0.54
318.08 K, 22018 kPa, x1 = 0.0173	857.06 ± 0.54
318.08 K, 22960 kPa, x1 = 0.0144	858.89 ± 0.53
318.08 K, 22995 kPa, x1 = 0.0173	864.32 ± 0.53
318.08 K, 23932 kPa, x1 = 0.0144	865.94 ± 0.52
318.08 K, 23962 kPa, x1 = 0.0173	871.14 ± 0.52
318.08 K, 24764 kPa, x1 = 0.0173	876.56 ± 0.52
318.08 K, 24829 kPa, x1 = 0.0144	872.11 ± 0.52
318.11 K, 9524 kPa, x1 = 0.0065	513.41 ± 2.1
318.11 K, 9601 kPa, x1 = 0.0049	505.2 ± 3.1
318.11 K, 9622 kPa, x1 = 0.0065	527.97 ± 3.1
318.11 K, 9697 kPa, x1 = 0.0049	521.21 ± 3.1
318.11 K, 9722 kPa, x1 = 0.0065	543.81 ± 3
318.11 K, 9775 kPa, x1 = 0.0049	532.95 ± 2.2
318.11 K, 9801 kPa, x1 = 0.0065	554.22 ± 2.5
318.11 K, 9898 kPa, x1 = 0.0065	566.44 ± 2.4
318.11 K, 9974 kPa, x1 = 0.0049	559.06 ± 2.1
318.11 K, 9975 kPa, x1 = 0.0065	575.84 ± 2.3
318.11 K, 10075 kPa, x1 = 0.0065	586.3 ± 2.1
318.11 K, 10181 kPa, x1 = 0.0065	596.66 ± 2.1
318.11 K, 10293 kPa, x1 = 0.0065	606.9 ± 2.1
318.11 K, 10405 kPa, x1 = 0.0065	616.37 ± 2
318.11 K, 10523 kPa, x1 = 0.0049	610.25 ± 1.6
318.11 K, 10629 kPa, x1 = 0.0065	632.61 ± 1.8
318.11 K, 10763 kPa, x1 = 0.0093	652.77 ± 1.1
318.11 K, 10830 kPa, x1 = 0.0065	645.51 ± 1.6
318.11 K, 10978 kPa, x1 = 0.0093	663.58 ± 1.1
318.11 K, 10980 kPa, x1 = 0.0049	639.71 ± 1.4
318.11 K, 11049 kPa, x1 = 0.0065	657.73 ± 1.4
318.11 K, 11516 kPa, x1 = 0.0065	679.19 ± 1.2
318.11 K, 11989 kPa, x1 = 0.0093	702.27 ± 0.99
318.11 K, 12007 kPa, x1 = 0.0049	684.72 ± 1.1
318.11 K, 12072 kPa, x1 = 0.0065	699.49 ± 1.1
318.11 K, 12537 kPa, x1 = 0.0065	713.68 ± 1
318.11 K, 12998 kPa, x1 = 0.0093	729.76 ± 0.84
318.11 K, 13017 kPa, x1 = 0.0065	726.51 ± 0.89
318.11 K, 13024 kPa, x1 = 0.0049	715.37 ± 0.89
318.11 K, 13986 kPa, x1 = 0.0049	737.86 ± 0.78
318.11 K, 14066 kPa, x1 = 0.0093	752.41 ± 0.76
318.11 K, 14069 kPa, x1 = 0.0065	749.53 ± 0.8
318.11 K, 14967 kPa, x1 = 0.0093	768.35 ± 0.7
318.11 K, 14970 kPa, x1 = 0.0049	756.77 ± 0.72
318.11 K, 15010 kPa, x1 = 0.0065	766.43 ± 0.75
318.11 K, 15879 kPa, x1 = 0.0065	779.94 ± 0.7
318.11 K, 15977 kPa, x1 = 0.0049	773.28 ± 0.68
